Test results reported in US12568969B2, “Pyridine compounds for controlling invertebrate pests” (FMC Corporation, priority 2020, dated 2026).

What was measured:
Format in all cases: in vivo
[1] = test system: diamondback moth (Plutella xylostella (L.)); experiment: Test A: control of diamondback moth on mustard plant, spray; conditions: sprayed at 250 ppm; assessed after 6 days
Description: (§1) Test compounds were formulated using a solution containing 10% acetone, […] and 300 ppm Activator 909 non-ionic surfactant (Loveland Products, Loveland, Colorado, USA). The formulated compounds were applied in 1 mL of liquid through an atomizer nozzle positioned 1.27 cm (0.5 inches) above the top of each test unit. Test compounds were sprayed at the rates indicated, and each test was replicated three times.
For evaluating control of diamondback moth (Plutella xylostella (L.)) the test unit consisted of a small open container with a 12-14-day-old mustard plant inside. This was pre-infested with ˜50 neonate larvae that were dispensed into the test unit via corn cob grits using an inoculator. The larvae moved onto the test plant after being dispensed into the test unit.
Test compounds were formulated and sprayed at 250 ppm. After spraying of the formulated test compound, each test unit was allowed to dry for 1 hour and then a black, screened cap was placed on top. The test units were held for 6 days in a growth chamber at 25° C. and 70% relative humidity. Plant feeding damage was then visually assessed based on foliage consumed, and larvae were assessed for mortality.

[2] = test system: cotton melon aphid (Aphis gossypii (Glover)); experiment: whole plant or invertebrate; conditions: Aphis gossypii, 144 h, 6 days; for mortality at 50 ppm: sprayed at 50 ppm; for mortality at 250 ppm: sprayed at 250 ppm
Description: as §1
[…] This was pre-infested with 30-40 insects on a piece of leaf according to the cut-leaf method, and the soil of the test unit was covered with a layer of sand.
Test compounds were formulated and sprayed at 250 and/or 50 ppm. After spraying, the test units were maintained in a growth chamber for 6 days at 19° C. and 70% relative humidity. Each test unit was then visually assessed for insect mortality.

[3] = test system: sweetpotato whitefly (Bemisia tabaci (Gennadius)); experiment: Test F: control of sweetpotato whitefly on cotton plant, spray; conditions: 312 h, 13 days; for mortality at 250 ppm: sprayed at 250 ppm; for mortality at 50 ppm: sprayed at 50 ppm
Description: as §1
For evaluating control of the sweetpotato whitefly (Bemisia tabaci (Gennadius)) through contact and/or systemic means, the test unit consisted of a small open container with a 12-14-day-old cotton plant inside. Prior to the spray application, both cotyledons were removed from the plant, leaving one true leaf for the assay. Adult whiteflies were allowed to lay eggs on the plant and then were removed from the test unit. Cotton plants infested with at least 15 eggs were submitted to the test for spraying.
Test compounds were formulated and sprayed at 250 and/or 50 ppm. After spraying, the test units were allowed to dry for 1 hour. The cylinders were then removed, and the units were taken to a growth chamber and held for 13 days at 28° C. and 50-70% relative humidity. Each test unit was then visually assessed for insect mortality.

[4] = test system: corn planthopper (Peregrinus maidis (Ashmead)); experiment: whole plant or invertebrate; conditions: Peregrinus maidis, 144 h, 6 days; for mortality at 50 ppm: sprayed at 50 ppm; for mortality at 250 ppm: sprayed at 250 ppm; for mortality at 10 ppm: sprayed at 10 ppm
Description: as §1
For evaluating control of corn planthopper (Peregrinus maidis (Ashmead)) through contact and/or systemic means, the test unit consisted of a small open container with a 3-4-day-old corn (maize) plant inside. White sand was added to the top of the soil prior to application of the test compound.
Test compounds were formulated and sprayed at 250 and/or 50 ppm and/or 10 ppm. After spraying of the formulated test compound, the test units were allowed to dry for 1 h before they were post-infested with ˜15-20 nymphs (18-to-21-day-old). A black, screened cap was placed on the top of each test unit, and the test units were held for 6 days in a growth chamber at 22-24° C. and 50-70% relative humidity. Each test unit was then visually assessed for insect mortality.

[5] = test system: green peach aphid (Myzus persicae (Sulzer)); experiment: Test D: control of green peach aphid on radish plant, spray; conditions: Myzus persicae, 144 h, 6 days; for mortality at 250 ppm: sprayed at 250 ppm; for mortality at 50 ppm: sprayed at 50 ppm
Description: as §1
For evaluating control of green peach aphid (Myzus persicae (Sulzer)) through contact and/or systemic means, the test unit consisted of a small open container with a 12-15-day-old radish plant inside. This was pre-infested by placing on a leaf of the test plant 30-40 aphids on a piece of leaf excised from a culture plant (cut-leaf method). The aphids moved onto the test plant as the leaf piece desiccated. After pre-infestation, the soil of the test unit was covered with a layer of sand.
[…] After spraying of the formulated test compound, each test unit was allowed to dry for 1 hour and then a black, screened cap was placed on top. The test units were held for 6 days in a growth chamber at 19-21° C. and 50-70% relative humidity. Each test unit was then visually assessed for insect mortality.

SMILES	control efficacy (40% or less feeding damage and/or 100% mortality) [1]	mortality at 50 ppm [2] [%]	mortality at 250 ppm [2] [%]	mortality at 250 ppm [3] [%]	mortality at 50 ppm [4] [%]	mortality at 250 ppm [4] [%]	mortality at 250 ppm [5] [%]	mortality at 50 ppm [5] [%]	mortality at 50 ppm [3] [%]	mortality at 10 ppm [4] [%]
Cc1noc(-c2cncc(Cl)c2C(F)c2ccc([S+]([O-])C(F)(F)F)cc2)n1 (mixture of isomers) [Compound 104]	very good to excellent levels of control efficacy									
Cc1noc(-c2cncc(F)c2C(F)c2ccc(OC(F)(F)F)cc2)n1 (racemic) [Compound 39]	very good to excellent levels of control efficacy									
FC(c1ccc(OC(F)(F)F)cc1)c1c(C2CC2)cncc1-n1nccn1 (racemic) [Compound 53]	very good to excellent levels of control efficacy									
Cc1noc(-c2cncc(Cl)c2C(F)c2ccc(SC(F)(F)F)cc2)n1 (racemic) [Compound 103]	very good to excellent levels of control efficacy									
FC(c1ccc(OC(F)(F)F)cc1)c1ccncc1-n1cncn1 (stereo not drawn) [Compound 12]		≥ 80	≥ 80	≥ 70	≥ 80	≥ 80	≥ 80			
FC(c1ccc(OC(F)(F)F)cc1)c1c(Cl)cncc1-n1cncn1 (stereo not drawn) [Compound 15]				≥ 70	≥ 80	≥ 80	≥ 80	≥ 80		
FC(c1ccc(OC(F)(F)F)cc1)c1c(Br)cncc1-n1nccn1 (stereo not drawn) [Compound 17]		≥ 80	≥ 80	≥ 70	≥ 80	≥ 80	≥ 80	≥ 80		
CCn1nccc1-c1cncc(F)c1C(F)c1ccc(OC(F)(F)F)cc1 (stereo not drawn) [Compound 55]	very good to excellent levels of control efficacy				≥ 80					
Cn1ccc(-c2cncc(F)c2C(F)c2ccc(OC(F)(F)F)cc2)n1 (stereo not drawn) [Compound 59]	very good to excellent levels of control efficacy		≥ 80							
FC(c1ccc(OC(F)(F)F)cc1)c1c(Cl)cncc1-c1cnco1 (stereo not drawn) [Compound 60]	very good to excellent levels of control efficacy		≥ 80							
[O-][S+](c1ccc(C(F)c2c(F)cncc2-n2nccn2)cc1)C(F)(F)F (stereo not drawn) [Compound 67, 3-fluoro-4-[fluoro-[4-(trifluoromethylsulfinyl)phenyl]methyl]-5-(triazol-2-yl)pyridine]		≥ 80	≥ 80	≥ 70	≥ 80	≥ 80	≥ 80	≥ 80		
COC(c1ccc(SC(F)(F)F)cc1)c1c(F)cncc1-n1cncn1 (stereo not drawn) [Compound 71]		≥ 80	≥ 80	≥ 70			≥ 80	≥ 80	≥ 70	
FC(c1ccc(OC(F)(F)F)cc1)c1c(Cl)cncc1-n1cccn1 (stereo not drawn) [Compound 88]		≥ 80	≥ 80	≥ 70	≥ 80	≥ 80	≥ 80		≥ 70	
[O-][S+](c1ccc(C(F)c2c(Cl)cncc2-n2nccn2)cc1)C(F)(F)F (stereo not drawn) [Compound 90]		≥ 80	≥ 80	≥ 70	≥ 80	≥ 80	≥ 80	≥ 80	≥ 70	
O=S(=O)(c1ccc(C(F)c2c(Cl)cncc2-n2nccn2)cc1)C(F)(F)F (stereo not drawn) [Compound 91]		≥ 80	≥ 80	≥ 70			≥ 80	≥ 80	≥ 70	
FC(c1ccc(SC(F)(F)F)cc1)c1c(I)cncc1-n1nccn1 (stereo not drawn) [Compound 95]		≥ 80	≥ 80	≥ 70	≥ 80	≥ 80	≥ 80	≥ 80	≥ 70	≥ 80
Fc1cncc(C2OCCO2)c1C(F)c1ccc(SC(F)(F)F)cc1 (stereo not drawn) [Compound 96]		≥ 80	≥ 80		≥ 80	≥ 80	≥ 80			≥ 80
Fc1cncc(-c2cnco2)c1C(F)c1ccc(SC(F)(F)F)cc1 (stereo not drawn) [Compound 100]	very good to excellent levels of control efficacy	≥ 80	≥ 80							
CC(C)(C)c1ccc(C(F)c2c(Br)cncc2-n2nccn2)cc1 (stereo not drawn) [Compound 108]				≥ 70	≥ 80	≥ 80			≥ 70	
FC(c1ccc(Br)cc1)c1c(Cl)cncc1-n1nccn1 (stereo not drawn) [Compound 109]		≥ 80	≥ 80	≥ 70	≥ 80	≥ 80			≥ 70	≥ 80
COC(c1ccc(Br)cc1)c1c(F)cncc1-n1nccn1 (stereo not drawn) [Compound 117]				≥ 70					≥ 70	
COC(c1ccc(SC(F)(F)F)cc1)c1c(Cl)cncc1-n1nccn1 (stereo not drawn) [Compound 127]		≥ 80	≥ 80	≥ 70	≥ 80	≥ 80	≥ 80	≥ 80	≥ 70	≥ 80
COC(c1ccc(SC(F)(F)F)cc1)c1c(Br)cncc1-n1ccnn1 (stereo not drawn) [Compound 134]				≥ 70					≥ 70	
FC(c1ccc2c(c1)OC(F)(F)O2)c1c(Br)cncc1-n1nccn1 (stereo not drawn) [Compound 147]	very good to excellent levels of control efficacy									
COC(c1ccc2c(c1)OC(F)(F)O2)c1c(F)cncc1-n1cccn1 (stereo not drawn) [Compound 155]	very good to excellent levels of control efficacy									
Fc1cncc(-n2cccn2)c1C(F)c1cnc(C(F)(F)F)nc1 (stereo not drawn) [Compound 162]	very good to excellent levels of control efficacy									
Fc1cncc(-n2nccn2)c1C(F)c1ccc(Br)nc1 (stereo not drawn) [Compound 166]	very good to excellent levels of control efficacy									
Fc1cncc(-n2cccn2)c1C(F)c1ccc(C(F)(F)F)cn1 (stereo not drawn) [Compound 171]	very good to excellent levels of control efficacy									
Fc1cncc(-n2nccn2)c1C(F)c1ccc(C(F)(F)F)cn1 (stereo not drawn) [Compound 172]	very good to excellent levels of control efficacy									
COC(c1ccc(OC(F)(F)F)cc1)c1ncncc1-n1nccn1 (stereo not drawn) [Compound 175]	very good to excellent levels of control efficacy									
